Earlier results on one compound are cited in patent US11085047B2, “Synthetic cannabinoid compounds for treatment of substance addiction and other disorders” (MyMD Pharmaceuticals (Florida), Inc., priority 2018, dated 2021).

For series [1] the following is noted: several clinical studies.
The conditions of series [2]: 2.5 to 5 mg; three patients.

In the case of `CCCCCc1cc(O)c2c(c1)OC(C)(C)[C@@H]1CCC(C)=C[C@@H]21` [THC, tetrahydrocannabinol], the bronchoconstriction after inhalation result (inhalation of THC) is given as “Very few patients developed bronchoconstriction”. Further, for the setting “oral THC (15 mg), acute studies”, the anti-asthmatic effect result was “approximately correspond to those obtained with therapeutic doses of common bronchodilator drugs”. Moreover, the “mood in reactive depression” value in series [1] is given as “improvement of mood”. The “effect on pruritus due to liver diseases” value in series [2] is on record as “effective”.
